Assay results published in US6387955B1, “Enhanced anti-angiogenic activity of permanently charged derivatives of steroid hormones” (Pharmos Corporation, priority 1997, dated 2002).

How the values were obtained:
MCF-7 tumors [1] = experiment: Capillary density in MCF-7 tumor sections by microscopic morphometry; type: in vivo, nude mice; settings: viable regions only
Method: Tumors from TMI-treated animals and from placebo-treated animals were removed after cervical dislocation. Tumors were treated with a biological dye (Davidson Marking Systems, Bradley Products, Bloomington, Minn.) so that histological sections could be oriented in the same direction as MRI slice images. The histological plane corresponding to the central slice of the MRI study was established by a single cut through the tumor. This plane was based on the position of the tumor in the spectrometer, sagittal, transverse and coronal images and anatomical landmarks. The bisected tumors were fixed in 10% formalin, dehydrated in 70% ethanol, blocked in paraffin. 4 μm histological sections were cut, placed on slides and stained with either hematoxylin-eosin or a modified trichrome method. Hematoxylin-eosin was used to assess viability, necrosis and pigmentation. The modified trichrome method was applied to the identification of fibrotic regions (i.e., the dye stains for mucopolysaccharides).
Vascular density was determined using two techniques: by morphometric analysis of histological sections and by image analysis of GSL-1 lectin stained sections. […] In each field, the number of grid squares containing capillaries, as defined by either the presence of red blood cells or a distinct endothelial cell, were recorded. […]

[2] = test system: MMP-2 (Gelatinase A) promoter; experiment: MMP-2 (Gelatinase A) related CAT activity in transfected bovine endothelial cells; type: cell-based
Method: Regulation of collagenase gene expression (for MMP-2 and MMP-9) was studied by measuring the activation of the relevant promoters linked to chloramphenicol acetyl transferase (CAT) as a reporter gene. The relevant vectors were introduced into the fibrosarcoma and endothelial cells by the lipofection as indicated by the manufacturer. CAT activity was determined after 3, 6 and 24 hrs either in the absence or presence of various concentrations of TMI.
To further examine where the inhibitory effects of TMI are manifested, human fibrosarcoma cells as well as bovine endothelial cells were transfected with plasmids containing the promoters for type IV collagenase (both MMP-2 and MMP-9) and the chloramphenicol acetyl transferase (CAT) construct to act as a reporter. Simian virus-40 (SV-40) served as the positive control. TMI was added to the transfected cells at concentrations of 1, 5 and 10 μM for 2 days, at which time cell viability was confirmed by trypan blue exclusion and cell counting.
In endothelial cells, TMI reduced CAT activity by 45% at 1.0 μM and by 80% at 10 μM.

MCF-7 tumors [3] = experiment: Growth of MCF-7 tumors implanted in ventral fat pad of nude mice, tumor size by MRI; type: in vivo; settings: TMI pellet 6.3 mg 45-day release, 25 day time course
Method: Female CD1-nu/nu athymic mice (6 weeks old) were obtained from the Weizmann Institute Department of Animal Services. MCF-7 cells, serially passed as described above, were detached from the culturing flasks with 0.03% EDTA in phosphate buffered saline (PBS) and washed several times in normal saline. Cells (10^7/innoculum) were then injected into the ventral fat pad at the level of the breast. Coincident with cell introduction, a slow-release pellet of estradiol (0.72 mg/pellet, 45-day release profile; Innovative Research, Sarasota, Fla.) was implanted subcutaneously in the flank of the animal. Mice were anesthetized with ketamine/Rompun (i.p.) for the surgical procedures. […] At this point, animals were randomized into four study groups. In the first, the estrogen pellet was removed and replaced with a slow-release TMI-laden pellet (6.3 mg, 45-day release) (n=5). In the second group, the estrogen pellet was removed and replaced with a tamoxifen pellet (n=7). The third group was treated with a blank (placebo) pellet (n=5), while the fourth group was reimplanted with an estradiol pellet (n=4). TMI and placebo-treated animals were imaged (under ketamine/Rompun anesthesia) either immediately before pellet exchange (day 0) or at day 3, 6, 12 and 25 after pellet exchange.
MRI images were recorded with a Bruker 4.7 (tesla)/30 Biospec spectrometer (Bruker Medizintechnik, Rheinstetten, Germany). 1H Spin-echo images were recorded at 200.12 MHz using a custom-made 4.5 cm rf coil with an image data matrix of 256×128 pixels. Pilot scans of the tumors were completed using a fast transverse multi-slice spin-echo sequence (giving T1-weighted spectra; inter-echo time (TE)=16 msec, recovery time (TR)=500 msec) followed by T2-weighted sequences in which axial slices perpendicular to the spine (i.e., a coronal orientation) were recorded. In the latter case, spin-echo images were obtained using a 4 cm field of view, 1 mm slice thickness, 1.2 mm slice-to-slice distance and a four-sequence average. The TE and TR were optimized to provide the best image contrast generating values of 80 and 3200 msec, respectively. This gave a total imaging time of approximately 30 min. […] Tumor size was calculated using a slice-to-slice reconstruction in which the slice surface area was obtained from histograms provided by the resident Bruker software package using the following relationship: […]
where XSA is the cross-sectional area of an internal slice, ES is the cross-sectional area of an edge slice, l is the slice thickness and ssd is the distance from the middle of one slice to the middle of the next. For image analysis, the average pixel intensity of viable portions of MCF-7 tumors was determined from a central tumor slice using histograms generated by the dedicated Bruker software package. […]

`CC/C(=C(\c1ccccc1)c1ccc(OCC[N+](C)(C)C)cc1)c1ccccc1` [TMI, Tamoxifen methiodide] was tested, and the “reduction in capillary area compared with the placebo” value (MCF-7 tumors [1]) was 50%, the “reduction of CAT activity” value ([2]; 1.0 μM) was 45% and the “reduction of CAT activity” value ([2]; 10 μM) was 80%. For the same compound, the “tumor regression (average shrinking)” value (MCF-7 tumors [3]) was 20%.
